Test results taken from patent US8461181B2, “Fused heterocyclic compound and use thereof” (Sumitomo Chemical Company, Ltd., priority 2009, dated 2013).

Columns and labels:
Assay type in all cases: in vivo
Aphis gossypii [1] = test: Test Example 3: root immersion of cucumber seedling, Aphis gossypii; details: 168 h, cucumber root part immersed in 5 ml, inoculated one day after treatment, checked seven days after
Method: The formulations of the present active compounds (18), (19), (21), (22), (24), (25), (28), (31) to (34), (46), (47), (52), (53), (101) to (104), (106) to (108), (112) to (114), (117), (118), (122), (123), (126), (128), (129), (133), (134), (138), (144), (153) to (155) and (157) obtained by Formulation Example 5 were diluted with water so that the active ingredient concentration was 500 ppm, to prepare diluted solutions for test. A root part of a cucumber seedling (first true leaf spreading stage) from which soil had been washed off was immersed in 5 ml of this diluted solution, and one day after treatment, the cucumber leaf surface was inoculated with 30 Aphis gossypii (whole stage). Further seven days after, the number of insect of living Aphis gossypii […] on the leaves of this cucumber was checked, and the control value was calculated according to the following formula. Control value (%)={1-(Cb×Tai)/(Cai×Tb)}×100 Letters in the formula represent the following meanings. Cb: the number of insect before treatment on non-treated district Cai: the number of insect in observation on non-treated district Tb: the number of insect before treatment on treated district Tai: the number of insect in observation on treated district

Nilaparvata lugens [2] = test: Test Example 8: spray on rice seedling, 20 first instar larvae of Nilaparvata lugens; details: 144 h, 10 ml sprayed on rice seedling, 20 first instar larvae released, 6 days at 25° C.
Method: The formulations of the present active compounds (6), (7), (18), (21), (24), (25), (28) to (30), (32), (46), (52), (101) to (103), (105) to (107), (111), (112), (115), (119) to (124), (126) to (130), (133) to (135), (139), (142), (144) to (146), (149) to (151), (153), (154), (216) and (217) obtained by Formulation Example 5 were diluted with water so that the active ingredient concentration was 500 ppm, to prepare spray solutions for test. Separately, on a rice seedling (2 weeks after sowing, second leaf spreading stage) planted on a plastic cup, the drug solutions for test prepared as described above were sprayed each in an amount of 10 ml. After drying of the drug solution sprayed on rice, 20 first instar larvae of Nilaparvata lugens were released, and kept in a greenhouse of 25° C. for 6 days. Thereafter, the number of Nilaparvata lugens […] on rice was checked, and the control value was calculated according to the following formula. Control value (%)={1-(Cb×Tai)/(Cai×Tb)}×100 Letters in the formula represent the following meanings. Cb: the number of insect before treatment on non-treated district Cai: the number of insect in observation on non-treated district Tb: the number of insect before treatment on treated district Tai: the number of insect in observation on treated district

Aphis gossypii [3] = test: Test Example 4: foot drench of cucumber seedling in plastic cup, inoculation after 7 days, Aphis gossypii; details: soil, 144 h, 5 ml drench at foot of cucumber seedling in plastic cup, kept 7 days at 25° C., inoculated, further 6 days
Method: The formulations of the present active compounds (3) to (7), (17), (19), (20), (22), (29) to (31), (35) to (37), (39), (41) to (45), (47) to (56), (101), (106), (121) to (123), (128), (131), (137), (139), (143), (145), (147), (211) to (213), (216) and (217) obtained by Formulation Example 5 were diluted with water so that the active ingredient concentration was 500 ppm, to prepare diluted solutions for test. Separately, a cucumber seedling (second true leaf spreading stage) planted on a plastic cup was drenched at its foot with each 5 ml of the diluted solutions, and kept in a greenhouse of 25° C. for 7 days. The cucumber leaf surface was inoculated with 30 Aphis gossypii (whole stage), and further kept in the greenhouse for 6 days, then, the number of insect of living Aphis gossypii […] on the leaves of this cucumber was checked, and the control value was calculated according to the following formula. Control value (%)={1-(Cb×Tai)/(Cai×Tb)}×100 Letters in the formula represent the following meanings. Cb: the number of insect before treatment on non-treated district Cai: the number of insect in observation on non-treated district Tb: the number of insect before treatment on treated district Tai: the number of insect in observation on treated district

Nilaparvata lugens [4] = test: Test Example 9: foot drench of rice seedling, twenty first instar larvae of Nilaparvata lugens; details: soil, 144 h, 5 ml drench at foot of rice seedling, kept 7 days, twenty first instar larvae released, further 6 days
Method: The formulations of the present active compounds (6), (7), (18), (22), (25), (30), (33), (46), (47), (53), (101) to (103), (106), (121) to (124), (126) to (128), (135), (139), (216) and (217) obtained by Formulation Example 5 were diluted with water so that the active ingredient concentration was 500 ppm, to prepare diluted solutions for test. Separately, a rice seedling (2 weeks after sowing, second leaf spreading stage) planted on a plastic cup was drenched at its foot with each 5 ml of the diluted solutions, and kept in a greenhouse of 25° C. for 7 days. Twenty first instar larvae of Nilaparvata lugens were released, and further kept in the greenhouse for 6 days, then, the number of insect of living Nilaparvata lugens […] on rice was checked, and the control value was calculated according to the following formula. Control value (%)={1-(Cb×Tai)/(Cai×Tb)}×100 Letters in the formula represent the following meanings. Cb: the number of insect before treatment on non-treated district Cai: the number of insect in observation on non-treated district Tb: the number of insect before treatment on treated district Tai: the number of insect in observation on treated district

In the case of `Cn1c(-c2ccncc2SCCF)nc2cc(C(F)(F)F)ccc21` [present active compound 129], the pest or weed control at 500 ppm (Aphis gossypii [1]) is reported as no less than 90%.

For `Fc1cnccc1-c1nc2cc(C(F)(F)F)ccc2n1C1CC1` [present active compound 28, 1-cyclopropyl-2-(3-fluoropyridin-4-yl)-5-trifluoromethyl-1H-benzimidazole], the pest or weed control at 500 ppm (Aphis gossypii [1]) was no less than 90%.

For `CCNC(=O)c1cnccc1-c1nc2cc(C(F)(F)F)cnc2n1C` [present active compound 138], the pest or weed control at 500 ppm (Aphis gossypii [1]) was no less than 90%.

Molecule `CCSc1cnccc1-c1nc2cc(C(F)(F)F)ccc2n1C1CC1` [present active compound 32, 1-cyclopropyl-2-(3-ethylthiopyridin-4-yl)-5-trifluoromethyl-1H-benzimidazole] has a pest or weed control at 500 ppm (Nilaparvata lugens [2]) of no less than 90%.

For `Cn1c(-c2ccncc2S)nc2cc(C(F)(F)F)cnc21` [present active compound 115], the pest or weed control at 500 ppm (Nilaparvata lugens [2]) was no less than 90%.

`Cn1c(-c2ccncc2OCC(C)(C)C)nc2cc(C(F)(F)F)cnc21` [present active compound 111] was tested, and the pest or weed control at 500 ppm (Nilaparvata lugens [2]) was no less than 90%.

`CCOc1cnccc1-c1nc2cc(C(F)(F)F)cnc2n1C` [present active compound 39, 2-(3-ethoxypyridin-4-yl)-3-methyl-6-trifluoromethyl-3H-imidazo[4,5-b]pyridine] was tested, and the pest or weed control at 500 ppm (Aphis gossypii [3]) was no less than 90%.

`CC(C)Sc1cnccc1-c1nc2cc(C(F)(F)F)cnc2n1C` [present active compound 101] gave a pest or weed control at 500 ppm (Aphis gossypii [3]) of no less than 90%.

`CN(C)S(=O)(=O)c1cnccc1-c1nc2cc(C(F)(F)F)cnc2n1C` [present active compound 131] showed a pest or weed control at 500 ppm (Aphis gossypii [3]) of no less than 90%.

`Cn1c(-c2ccncc2SCC2CC2)nc2cc(C(F)(F)F)cnc21` [present active compound 145] showed a pest or weed control at 500 ppm (Aphis gossypii [3]) of no less than 90%.

`Cn1c(-c2ccncc2SC(F)(F)F)nc2cc(C(F)(F)F)ccc21` [present active compound 122] showed a pest or weed control at 500 ppm (Aphis gossypii [1]) of no less than 90%.

`CC[S+]([O-])c1cnccc1-c1nc2cc(C(F)(F)F)ccc2n1C` (stereo not drawn) [present active compound 21, 2-(3-ethanesulfinylpyridin-4-yl)-1-methyl-5-trifluoromethyl-1H-benzimidazole] gave a pest or weed control at 500 ppm (Nilaparvata lugens [2]) of no less than 90% and a pest or weed control at 500 ppm (Aphis gossypii [1]) of no less than 90%.

`Cn1c(-c2cc[n+]([O-])cc2)nc2cc(C(F)(F)F)ccc21` [present active compound 24, 1-methyl-2-(1-oxypyridin-4-yl)-5-trifluoromethyl-1H-benzimidazole] was tested, and the pest or weed control at 500 ppm (Nilaparvata lugens [2]) was no less than 90% and the pest or weed control at 500 ppm (Aphis gossypii [1]) was no less than 90%.

In the case of `CC[S+]([O-])c1cnccc1-c1nc2cc(C(F)(F)F)ccc2n1C1CC1` (stereo not drawn) [present active compound 33, 1-cyclopropyl-2-(3-ethanesulfinylpyridin-4-yl)-5-trifluoromethyl-1H-benzimidazole], the pest or weed control at 500 ppm (Nilaparvata lugens [4]) is reported as no less than 90%.

`Cn1c(-c2ccncc2SCCF)nc2cc(C(F)(F)F)cnc21` [present active compound 128] was tested, and the pest or weed control at 500 ppm (Aphis gossypii [1]) was no less than 90% and the pest or weed control at 500 ppm (Aphis gossypii [3]) was no less than 90%.

`CCS(=O)(=O)c1cnccc1-c1nc2cc(C(F)(F)F)cnc2n1C` [present active compound 53, 2-(3-ethanesulfonylpyridin-4-yl)-3-methyl-6-trifluoromethyl-3H-imidazo[4,5-b]pyridine] showed a pest or weed control at 500 ppm (Aphis gossypii [1]) of no less than 90% and a pest or weed control at 500 ppm (Nilaparvata lugens [4]) of no less than 90%.

Work on `Cn1c(-c2ccncc2SC(F)(F)C(F)F)nc2cc(C(F)(F)F)cnc21` [present active compound 126] yielded a pest or weed control at 500 ppm (Aphis gossypii [1]) of no less than 90%.

`C=CCSc1cnccc1-c1nc2cc(C(F)(F)F)cnc2n1C` [present active compound 133] gave a pest or weed control at 500 ppm (Aphis gossypii [1]) of no less than 90%.

Work on `C#CCSc1cnccc1-c1nc2cc(C(F)(F)F)cnc2n1C` [present active compound 135] yielded a pest or weed control at 500 ppm (Nilaparvata lugens [4]) of no less than 90%.

Molecule `CC(C)COc1cnccc1-c1nc2cc(C(F)(F)F)cnc2n1C` [present active compound 112] has a pest or weed control at 500 ppm (Nilaparvata lugens [2]) of no less than 90%.

Molecule `Cn1c(-c2ccncc2S(C)(=O)=O)nc2cc(C(F)(F)F)ccc21` [present active compound 19, 2-(3-methanesulfonylpyridin-4-yl)-1-methyl-5-trifluoromethyl-1H-benzimidazole] has a pest or weed control at 500 ppm (Aphis gossypii [1]) of no less than 90% and a pest or weed control at 500 ppm (Aphis gossypii [3]) of no less than 90%.

Molecule `CC[S+]([O-])c1cnccc1-c1nc2cc(C(F)(F)F)cnc2n1C` (stereo not drawn) [present active compound 52, 2-(3-ethanesulfinylpyridin-4-yl)-3-methyl-6-trifluoromethyl-3H-imidazo[4,5-b]pyridine] has a pest or weed control at 500 ppm (Nilaparvata lugens [2]) of no less than 90% and a pest or weed control at 500 ppm (Aphis gossypii [1]) of no less than 90%.

For `COC(=O)CSc1cnccc1-c1nc2cc(C(F)(F)F)cnc2n1C` [present active compound 157], the pest or weed control at 500 ppm (Aphis gossypii [1]) was no less than 90%.

With `CNC(=O)c1cnccc1-c1nc2cc(C(F)(F)F)cnc2n1C` [present active compound 137] the pest or weed control at 500 ppm (Aphis gossypii [3]) was no less than 90%.

With `CCOC(=O)c1cnccc1-c1nc2cc(C(F)(F)F)cnc2n1C` [present active compound 144] the pest or weed control at 500 ppm (Aphis gossypii [1]) was no less than 90%.

In the case of `COCCSc1cnccc1-c1nc2cc(C(F)(F)F)cnc2n1C` [present active compound 147], the pest or weed control at 500 ppm (Aphis gossypii [3]) is reported as no less than 90%.

`Cn1c(-c2ccncc2SCC#N)nc2cc(C(F)(F)F)cnc21` [present active compound 153] gave a pest or weed control at 500 ppm (Nilaparvata lugens [2]) of no less than 90%.

In the case of `COC(=O)c1cnccc1-c1nc2cc(C(F)(F)F)cnc2n1C` [present active compound 143], the pest or weed control at 500 ppm (Aphis gossypii [3]) is reported as no less than 90%.

For `C=CCSc1cnccc1-c1nc2cc(C(F)(F)F)ccc2n1C` [present active compound 134], the pest or weed control at 500 ppm (Aphis gossypii [1]) was no less than 90%.

In the case of `Cn1c(-c2ccncc2SCC#N)nc2cc(C(F)(F)F)ccc21` [present active compound 154], the pest or weed control at 500 ppm (Nilaparvata lugens [2]) is reported as no less than 90%.

`C[S+]([O-])c1cnccc1-c1nc2cc(C(F)(F)F)ccc2n1C1CC1` (stereo not drawn) [present active compound 30, 1-cyclopropyl-2-(3-methanesulfinylpyridin-4-yl)-5-trifluoromethyl-1H-benzimidazole] gave a pest or weed control at 500 ppm (Nilaparvata lugens [4]) of no less than 90%.

Molecule `Cn1c(-c2ccncc2C(=O)NCC#N)nc2cc(C(F)(F)F)cnc21` [present active compound 142] has a pest or weed control at 500 ppm (Nilaparvata lugens [2]) of no less than 90%.

In the case of `Cn1c(-c2ccncc2SCC(F)F)nc2cc(C(F)(F)F)cnc21` [present active compound 123], the pest or weed control at 500 ppm (Aphis gossypii [1]) is reported as no less than 90%.
